From patent publication US20240217969A1, “SUBSTITUTED PYRROLE CARBOXAMIDES, PROCESS FOR THEIR PREPARATION AND THEIR USE AS KINASE INHIBITORS” (priority 2021, published 2024)

Columns and labels:
[1] = biological target: Cdc7 (Homo sapiens, UniProt O00311); assay: Cdc7 biochemical assay, ADPGlo assay format
Method: The biochemical activity of compounds was determined by incubation with specific enzymes and substrate, followed by quantification of the ADP product. Compounds were 4-fold serially diluted from 10 to 0.0006 uM; in the case of the pre-incubation step, the enzyme is added to the inhibitor solution and the mixture is left to incubate for 30 minutes at room temperature (r.t.). The reaction started with the addition of the substrate and the ATP, when the enzyme was already present in the preincubation step, or substrate, ATP and enzyme when the preincubation step was not present. The concentrations of ATP, substrate and reaction buffer are described above. The assays were run in a robotized format on 384-well plates. […] At the end of the incubation time, an equal volume of ADPGlo Reagent 1 (Promega) was added to stop the reaction and to remove all unreacted ATP. After 60 minutes, an equal volume of ADPGlo Reagent 2 (Promega) was added to convert ADP in ATP and then ATP in light by luciferase reaction.
y=bottom+(top−bottom)/(1+10^((log IC50−x)*slope))
where x is the logarithm of the inhibitor concentration, y is the response; y starts at bottom and goes to top with a sigmoid shape.

[2] = biological target: T1, aldehyde oxidases (human liver cytosol) (Homo sapiens, UniProt Q06278); type: in vitro ADME; details: human liver cytosol 1 mg/mL, 1 μM compound; for HLC % remaining (1 h incub.): 60 min incubation; for HLC % remaining (1 h incub.) / HLC T½ min: pH 7.4, 37° C.; for IntCl (Intrinsic Clearance): half-life approach
T1 construct: added to human liver cytosol (1 mg/mL protein content); from tissue; host or cells: human liver cytosol
Method: The aldehyde oxidases involvement in the metabolism of the test item was determined by comparison of the intrinsic clearance values in the presence and absence of aldehyde oxidases inhibitor hydralazine hydrochloride. The purpose of the study was to evaluate the in-vitro intrinsic clearance, the metabolic stability towards aldehyde oxidases (AO) activity and the metabolism of the test item in human liver cytosol. The intrinsic clearance was determined using the half-life approach, by measuring the substrate disappearance along 60 minutes incubation with human liver cytosol. Incubations were performed at the concentration of 1 μM. […] HPLC-MS/MS was used for the detection of the compound left over during the incubation. For intrinsic clearance determination samples were analyzed by high performance liquid chromatography (HPLC) on-line with mass spectrometry (MS) equipment. For the determination of aldehyde oxidases activity (i.e. positive control) of cytosol, phthalazine was incubated with human liver cytosol in presence and absence of the aldehyde oxidases inhibitor. On the day of the incubation, the compound was dissolved in DMSO at the concentration of 10 mM. Aliquots of this solution were added to the test system to a final concentration of […]. The percentage of DMSO in the final incubates was […]. Aliquots of the test item were added to human liver cytosol (1 mg/mL protein content) in Dulbecco's buffer, pH 7.4 at 37° C., to reach final concentration of 1 μM. Incubations were performed in a 48-well plate, under shaking. At 0, 5, 10, 20, 30 and 60 minutes incubation, 50 μL aliquots of the incubate were sampled, poured in 80 μL of ice-cold acetonitrile and 20 μL of 1 μM warfarin in acetonitrile (injection control) and centrifuged at 2500 rpm for 20 minutes. The supernatant was immediately analysed by LC-MS/MS.
The test item was incubated in parallel, in duplicate, at the concentration of 1 μM in Dulbecco's buffer, pH 7.4 for 60 min at 37° C. in the presence of 10 μM hydralazine hydrochloride (aldehyde oxidases inhibitor).
The chemical stability of the test item was checked in parallel by incubating the test item in single at the concentration of 1 μM in Dulbecco's buffer, pH 7.4 for 60 min at 37° C. (negative control).
The intrinsic clearance (CLint) was calculated using the half-life approach. Half-life and CLint were determined from the concentration (area counts) remaining at the different sampling points using the LC-MS/MS method. By plotting the natural logarithmic area of the compound remaining against the time, the slope was calculated by linear regression analysis and converted into the half-life (t½) and CLint expressed as μL/min/mg protein according to the following formulae: […]

T1 sequence (Q06278 whole entry): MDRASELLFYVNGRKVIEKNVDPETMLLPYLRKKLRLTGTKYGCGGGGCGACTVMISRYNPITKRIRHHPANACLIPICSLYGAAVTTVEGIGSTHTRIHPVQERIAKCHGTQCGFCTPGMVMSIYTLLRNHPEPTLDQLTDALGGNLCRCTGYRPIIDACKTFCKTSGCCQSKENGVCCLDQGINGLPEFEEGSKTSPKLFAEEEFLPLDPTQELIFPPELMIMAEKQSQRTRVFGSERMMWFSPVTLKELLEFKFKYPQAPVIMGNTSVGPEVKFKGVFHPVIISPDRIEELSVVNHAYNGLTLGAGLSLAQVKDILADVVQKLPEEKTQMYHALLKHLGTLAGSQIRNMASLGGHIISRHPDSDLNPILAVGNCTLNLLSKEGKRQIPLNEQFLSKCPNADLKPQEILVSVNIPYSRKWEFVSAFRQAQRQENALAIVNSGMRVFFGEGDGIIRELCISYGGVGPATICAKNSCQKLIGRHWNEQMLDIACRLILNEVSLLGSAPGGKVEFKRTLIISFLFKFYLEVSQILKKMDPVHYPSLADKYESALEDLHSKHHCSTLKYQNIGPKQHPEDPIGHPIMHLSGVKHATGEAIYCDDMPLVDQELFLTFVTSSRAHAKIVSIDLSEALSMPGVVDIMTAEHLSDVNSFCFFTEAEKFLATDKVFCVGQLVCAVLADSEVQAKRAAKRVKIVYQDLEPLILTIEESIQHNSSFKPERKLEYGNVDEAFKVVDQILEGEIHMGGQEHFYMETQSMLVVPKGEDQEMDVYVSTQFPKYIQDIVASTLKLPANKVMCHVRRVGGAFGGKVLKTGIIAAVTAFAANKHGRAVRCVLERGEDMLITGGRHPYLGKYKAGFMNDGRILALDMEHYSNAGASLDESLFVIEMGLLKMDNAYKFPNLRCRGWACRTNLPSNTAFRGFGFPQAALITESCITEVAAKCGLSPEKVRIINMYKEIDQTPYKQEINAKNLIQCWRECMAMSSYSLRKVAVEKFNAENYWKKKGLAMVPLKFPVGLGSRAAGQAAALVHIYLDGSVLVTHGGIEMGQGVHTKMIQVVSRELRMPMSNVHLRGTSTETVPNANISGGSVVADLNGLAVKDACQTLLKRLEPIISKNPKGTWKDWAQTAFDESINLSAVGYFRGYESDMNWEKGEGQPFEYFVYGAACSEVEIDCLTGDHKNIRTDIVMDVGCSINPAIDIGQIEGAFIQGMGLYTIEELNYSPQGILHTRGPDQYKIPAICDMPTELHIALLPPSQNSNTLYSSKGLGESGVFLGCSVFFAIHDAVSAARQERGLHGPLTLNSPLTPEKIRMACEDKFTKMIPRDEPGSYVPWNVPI
Sequence of Cdc7 (O00311 whole entry): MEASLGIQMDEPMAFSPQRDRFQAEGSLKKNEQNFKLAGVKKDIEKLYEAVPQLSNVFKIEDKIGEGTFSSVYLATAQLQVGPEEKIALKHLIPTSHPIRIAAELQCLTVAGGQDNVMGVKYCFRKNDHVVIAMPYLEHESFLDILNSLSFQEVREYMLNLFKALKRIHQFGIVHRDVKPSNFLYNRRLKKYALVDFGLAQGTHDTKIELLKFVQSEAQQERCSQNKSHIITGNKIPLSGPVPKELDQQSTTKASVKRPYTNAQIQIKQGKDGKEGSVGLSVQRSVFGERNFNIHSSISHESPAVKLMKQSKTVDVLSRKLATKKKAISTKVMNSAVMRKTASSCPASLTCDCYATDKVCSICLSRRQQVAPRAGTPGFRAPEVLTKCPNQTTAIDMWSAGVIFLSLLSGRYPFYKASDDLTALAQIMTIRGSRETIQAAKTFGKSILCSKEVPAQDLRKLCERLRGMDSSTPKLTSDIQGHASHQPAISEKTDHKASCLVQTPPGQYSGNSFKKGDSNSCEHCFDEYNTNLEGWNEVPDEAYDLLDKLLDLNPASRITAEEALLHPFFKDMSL
Sequence of Cdc7 (Q9UBU7 whole entry partner): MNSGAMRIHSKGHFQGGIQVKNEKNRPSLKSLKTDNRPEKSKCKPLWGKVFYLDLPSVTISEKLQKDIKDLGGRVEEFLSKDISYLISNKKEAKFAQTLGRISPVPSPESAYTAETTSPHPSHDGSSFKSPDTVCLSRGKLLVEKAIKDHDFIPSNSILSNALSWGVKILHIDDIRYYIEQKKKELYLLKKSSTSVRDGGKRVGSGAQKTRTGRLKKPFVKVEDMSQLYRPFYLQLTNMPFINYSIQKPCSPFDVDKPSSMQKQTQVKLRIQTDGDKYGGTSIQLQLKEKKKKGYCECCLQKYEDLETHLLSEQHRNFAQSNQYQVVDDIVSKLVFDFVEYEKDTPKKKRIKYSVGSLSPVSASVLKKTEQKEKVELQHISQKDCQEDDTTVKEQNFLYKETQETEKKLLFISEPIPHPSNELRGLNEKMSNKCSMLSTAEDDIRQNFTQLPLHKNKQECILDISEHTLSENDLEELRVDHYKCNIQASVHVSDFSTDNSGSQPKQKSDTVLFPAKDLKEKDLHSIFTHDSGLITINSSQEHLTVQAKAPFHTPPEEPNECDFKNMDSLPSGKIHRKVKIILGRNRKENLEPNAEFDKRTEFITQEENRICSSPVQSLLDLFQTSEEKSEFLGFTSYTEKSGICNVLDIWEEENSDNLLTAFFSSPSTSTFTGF

Compound | IC50 [1] | further results
CCn1c(-c2ccnc3[nH]ccc23)cc(C(N)=O)c1-c1ccc(Cl)cc1Cl [compound 57, 2-(2,4-dichlorophenyl)-1-ethyl-5-(1H-pyrrolo[2,3-b]pyridin-4-yl)-1H-pyrrole-3-carboxamide] | 17 nM | 
Cc1ccc(-c2[nH]c(-c3ccnc4[nH]ccc34)cc2C(N)=O)cc1[N+](=O)[O-] [comp 21, 2-(4-methyl-3-nitrophenyl)-5-(1H-pyrrolo[2,3-b]pyridin-4-yl)-1H-pyrrole-3-carboxamide] | 34 nM | 
NC(=O)c1cc(-c2ccnc3[nH]ccc23)[nH]c1-c1ccc(F)c(F)c1 [comp 19, 2-(3,4-difluorophenyl)-5-(1H-pyrrolo[2,3-b]pyridin-4-yl)-1H-pyrrole-3-carboxamide] | 15 nM | 
NC(=O)c1cc(-c2ccnc3[nH]ncc23)[nH]c1-c1ccc(Cl)cc1Cl [compound 47, 2-(2,4-dichlorophenyl)-5-(1H-pyrazolo[3,4-b]pyridin-4-yl)-1H-pyrrole-3-carboxamide] | 4 nM | 
NC(=O)c1cc(-c2ccnc3[nH]ccc23)[nH]c1-c1ccc2c(c1)OCCO2 [comp 36, 2-(2,3-dihydro-1,4-benzodioxin-6-yl)-5-(1H-pyrrolo[2,3-b]pyridin-4-yl)-1H-pyrrole-3-carboxamide] | 10 nM | 
CCc1c(-c2ccnc3[nH]ccc23)[nH]c(-c2ccc(C)cc2F)c1C(N)=O [comp 40, 4-ethyl-2-(2-fluoro-4-methylphenyl)-5-(1H-pyrrolo[2,3-b]pyridin-4-yl)-1H-pyrrole-3-carboxamide] | 717 nM | 
Cc1ccc(-c2[nH]c(-c3ccnc4[nH]ccc34)cc2C(=O)NCCF)c(F)c1 [comp 28, N-(fluoroethyl)-2-(2-fluoro-4-methylphenyl)-5-(1H-pyrrolo[2,3-b]pyridin-4-yl)-1H-pyrrole-3-carboxamide] | 67 nM | 
Cc1ccc(-c2[nH]c(-c3ccnc4[nH]ccc34)cc2C(=O)NCc2ccco2)c(F)c1 [comp 27, 2-(2-fluoro-4-methylphenyl)-N-(furan-2-ylmethyl)-5-(1H-pyrrolo[2,3-b]pyridin-4-yl)-1H-pyrrole-3-carboxamide] | 61 nM | 
Cn1c(-c2ccnc3[nH]ccc23)cc(C(N)=O)c1-c1ccc(Cl)cc1Cl [compound 56, 2-(2,4-dichlorophenyl)-1-methyl-5-(1H-pyrrolo[2,3-b]pyridin-4-yl)-1H-pyrrole-3-carboxamide] | 14 nM | 
NC(=O)c1cc(-c2ccnc3[nH]ccc23)n(CCC(F)(F)F)c1-c1ccc(Cl)cc1Cl [compound 55, 2-(2,4-dichlorophenyl)-5-(1H-pyrrolo[2,3-b]pyridin-4-yl)-1-(3,3,3-trifluoropropyl)-1H-pyrrole-3-carboxamide] | 996 nM | 
Cc1ccc(-c2[nH]c(-c3c[nH]nc3C)cc2C(N)=O)c(F)c1 [compound 52, 2-(2-fluoro-4-methylphenyl)-5-(3-methyl-1H-pyrazol-4-yl)-1H-pyrrole-3-carboxamide] |  | HLC % remaining (1 h incub.) [2]: 100%; IntCl (Intrinsic Clearance) [2]: 2.9 μL/min/mg protein; HLC T½ min [2]: 3.98 h
NC(=O)c1cc(-c2ccnc3[nH]ccc23)[nH]c1-c1cccc(F)c1 [comp 33, 2-(3-fluorophenyl)-5-(1H-pyrrolo[2,3-b]pyridin-4-yl)-1H-pyrrole-3-carboxamide] | 14 nM | 
NC(=O)c1cc(-c2[nH]c(-c3ccnc4[nH]ccc34)cc2C(N)=O)ccc1F [comp 22, 2-(3-carbamoyl-4-fluorophenyl)-5-(1H-pyrrolo[2,3-b]pyridin-4-yl)-1H-pyrrole-3-carboxamide] | 27 nM | 
CCOc1cccc(-c2[nH]c(-c3ccnc4[nH]ccc34)cc2C(N)=O)c1F [comp 20, 2-(3-ethoxy-2-fluorophenyl)-5-(1H-pyrrolo[2,3-b]pyridin-4-yl)-1H-pyrrole-3-carboxamide] | 5 nM | 
COc1ccc(-c2[nH]c(-c3ccnc4[nH]ccc34)cc2C(N)=O)c(C(F)(F)F)c1 [comp 16, 2-[4-methoxy-2-(trifluoromethyl)phenyl]-5-(1H-pyrrolo[2,3-b]pyridin-4-yl)-1H-pyrrole-3-carboxamide] | 6 nM | 
NC(=O)c1cc(-c2ccnc3[nH]ccc23)[nH]c1-c1ccc(OC(F)F)cc1Cl [comp 17, 2-[2-chloro-4-(difluoromethoxy)phenyl]-5-(1H-pyrrolo[2,3-b]pyridin-4-yl)-1H-pyrrole-3-carboxamide] | 1 nM | 
Cc1ccc(-c2[nH]c(-c3ccnc4[nH]ccc34)c(I)c2C(N)=O)c(F)c1 [comp 38, 2-(2-fluoro-4-methylphenyl)-4-iodo-5-(1H-pyrrolo[2,3-b]pyridin-4-yl)-1H-pyrrole-3-carboxamide] | 101 nM | 
Cc1ccc(-c2[nH]c(-c3ccnc4[nH]ccc34)cc2C(N)=O)c(F)c1 [compound 53, 2-(2-fluoro-4-methylphenyl)-5-(1H-pyrrolo[2,3-b]pyridin-4-yl)-1H-pyrrole-3-carboxamide] |  | HLC % remaining (1 h incub.) [2]: 100%; IntCl (Intrinsic Clearance) [2]: 2.9 μL/min/mg protein; HLC T½ min [2]: 3.98 h
NC(=O)c1cc(-c2ccnc3[nH]ccc23)n(CCO)c1-c1ccc(Cl)cc1Cl [compound 54, 2-(2,4-dichlorophenyl)-1-(2-hydroxyethyl)-5-(1H-pyrrolo[2,3-b]pyridin-4-yl)-1H-pyrrole-3-carboxamide] | 418 nM | 
NC(=O)c1cc(-c2ccnc3[nH]ccc23)[nH]c1-c1ccc(Cl)c(Cl)c1 [comp 18, 2-(3,4-dichlorophenyl)-5-(1H-pyrrolo[2,3-b]pyridin-4-yl)-1H-pyrrole-3-carboxamide] | 31 nM | 
Cc1ccc(-c2[nH]c(-c3ccnc4[nH]ccc34)cc2C(=O)NCCN(C)C)c(F)c1 [comp 24, N-[2-(dimethylamino)ethyl]-2-(2-fluoro-4-methylphenyl)-5-(1H-pyrrolo[2,3-b]pyridin-4-yl)-1H-pyrrole-3-carboxamide] | 741 nM | 
NC(=O)c1cc(-c2ccnc3[nH]ccc23)[nH]c1-c1cccc2c1sc1ccccc12 [comp 31, 2-(dibenzo[b,d]thiophen-4-yl)-5-(1H-pyrrolo[2,3-b]pyridin-4-yl)-1H-pyrrole-3-carboxamide] | 759 nM | 
Cc1ccc(-c2[nH]c(-c3ccnc4[nH]ccc34)c(Br)c2C(N)=O)c(F)c1 [comp 39, 2-(2-fluoro-4-methylphenyl)-4-bromo-5-(1H-pyrrolo[2,3-b]pyridin-4-yl)-1H-pyrrole-3-carboxamide] | 159 nM | 
NC(=O)c1cc(-c2csc(N)n2)[nH]c1-c1ccc(Cl)cc1Cl [compound 45, 5-(2-amino-1,3-thiazol-4-yl)-2-(2,4-dichlorophenyl)-1H-pyrrole-3-carboxamide] |  | HLC % remaining (1 h incub.) [2]: 98%; IntCl (Intrinsic Clearance) [2]: 2.9 μL/min/mg protein; HLC T½ min [2]: 3.98 h
Cc1ccc(-c2[nH]c(-c3ccnc4[nH]ccc34)cc2C(=O)N[C@H]2CCCC[C@H]2N)c(F)c1 [comp 26, N-[(1S,2R)-2-aminocyclohexyl]-2-(2-fluoro-4-methylphenyl)-5-(1H-pyrrolo[2,3-b]pyridin-4-yl)-1H-pyrrole-3-carboxamide] | 12 nM | 
Cc1cc(F)ccc1-c1[nH]c(-c2ccnc3[nH]ccc23)cc1C(N)=O [comp 37, 2-(4-fluoro-2-methylphenyl)-5-(1H-pyrrolo[2,3-b]pyridin-4-yl)-1H-pyrrole-3-carboxamide] | 2 nM | 
Cc1ccc(-c2[nH]c(-c3ccnc4[nH]ccc34)cc2C(=O)NC2CCN(C)CC2)c(F)c1 [comp 30, 2-(2-fluoro-4-methylphenyl)-N-(1-methylpiperidin-4-yl)-5-(1H-pyrrolo[2,3-b]pyridin-4-yl)-1H-pyrrole-3-carboxamide] | 3130 nM | 
